Data reported in US20070178436A1, “Method of inactivating virus in circular blood and its applications in treating viral diseases” (Beijing Jingjing Medical Equipment CO., Ltd., priority 2003, published 2007).
Read-outs that look alike come from different tables or passages of the source.

What was measured:
[1] = system: clotting factors of plasma; test: Clotting factors before and after processing, automated coagulation analyzer; settings: 60 minutes of circulatory processing
complement C3 = test: Impact on the content of complement C3 (single-diffusion plate); settings: 60 minutes of circulatory processing
Sindbis virus (SV) = assay type: cell-based
[2] = Impact on the content of the plasma protein (automatic biochemical analyzer); settings: 60 minutes of circulatory processing
[3] = Impact on the pH value of whole blood; assay type: physicochemical; settings: for pH value in whole blood: 60 minutes of circulatory processing
[4] = Impact on the content of Inorganic Salt (automatic biochemical analyzer); settings: 60 minutes of circulatory processing
[5] = system: VSV (vesicular stomatitis virus); assay type: cell-based
clotting factor IX = test: Impact on the activity of clotting factor IX (detection kit); settings: for Activity of factor IX (%): 60 minutes of circulatory processing
VSV = assay type: cell-based, vesicular stomatitis virus; settings: for residual virus VSV: 1500 ml plasma, bag with three pressed folded lines
Sindbis = assay type: cell-based, Sindbis virus
clotting factor VIII = test: Impact on the activity of clotting factor VIII (detection kit); settings: 60-minute circulatory processing

## CN(C)c1ccc2nc3ccc(=[N+](C)C)cc-3sc2c1 [methylene blue]
[1]
  APTT clotting time: 74.0 ″
  Clotting factor II clotting time: 25.0 ″
  Clotting factor IX clotting time: 66.7 ″
  Clotting factor V clotting time: 31.8 ″
  Clotting factor VII clotting time: 26.8 ″
  Clotting factor VIII clotting time: 83.6 ″
  Clotting factor X clotting time: 32.6 ″
  Clotting factor XI clotting time: 82.6 ″
  Clotting factor XII clotting time: 70.2 ″
  PT clotting time: 19.6 ″
[1]; versus control plasma
  APTT (reduced): 17.5%
  Clotting factor II (reduced): 1.6%
  Clotting factor IX (reduced): 4.9%
  Clotting factor V (reduced): 8.9%
  Clotting factor VII (reduced): 7.2%
  Clotting factor VIII (reduced): 7.2%
  Clotting factor XI (reduced): 6.7%
  Clotting factor XII (reduced): 3.7%
  PT (reduced): 31.5%
Complement C3
  reduction of the content of the complement C3 compared to a reference: about 5%
Complement C3; batch I
  content of the complement C3: 5.64 mg/mL
Complement C3; batch II
  content of the complement C3: 5.43 mg/mL
Complement C3; batch III
  content of the complement C3: 5.61 mg/mL
Sindbis virus (SV)
  virus titer left Sindbis: ≦−0.05 lg TCID50
[2]
  Albumin content: 36.1 g/L
  Glucose content: 21.2 mM/l
  Total protein content: 58.8 g/L
  triglyceride content: 1.62 mM/l
[3]; batch I
  pH value in whole blood: 7.35
[3]; batch II
  pH value in whole blood: 7.38
[3]; batch III
  pH value in whole blood: 7.36
[3]; processing method of the invention
  change on the pH value of the whole blood: does not cause any change on the pH value
[4]
  Ca content: 1.57 mM/l
  Cho content: 3.82 mM/l
  Cl content: 58.7 mM/l
  K content: 3.22 mM/l
  Mg content: 0.67 mM/l
  Na content: 135.1 mM/l
  P content: 1.19 mM/l
[5]; Volume of blood 1000 ml, circulatory time 60 mins
  virus titer left (VSV): ≦−0.5 lg TCID50
[5]; Volume of blood 2000 ml, circulatory time 120 mins
  virus titer left (VSV): ≦−0.5 lg TCID50
Clotting factor IX; 60-minute circulatory processing
  range of decrease of the activity of clotting factor IX: about 10%
Clotting factor IX; batch I
  Activity of factor IX (%): 106.1%
Clotting factor IX; batch II
  Activity of factor IX (%): 125.2%
Clotting factor IX; batch III
  Activity of factor IX (%): 89.4%
VSV; Illumination time 1 h, 50 ml/min
  residual virus VSV: 2.63 Lg TCID50
VSV; Illumination time 2 h, 50 ml/min
  residual virus VSV: −0.13 Lg TCID50
VSV; Illumination time 4 h, 50 ml/min
  residual virus VSV: ≦−0.50 Lg TCID50
VSV; Simulation 1, 1500 ml plasma, 50 ml/min
  reduction of virus titer VSV: over 5.0 Lg TCID50
VSV; illumination path 2.0 m, illumination time 26.0 sec, 50 ml/min
  virus liter left VSV: ≦−0.5 Lg TCID50
VSV; illumination path 2 meter, 26 seconds, 50 ml/min
  VSV illuminated (titer reduction): more than 5 LgTCID50
VSV; illumination path 2.5 m, illumination time 32.5 sec, 50 ml/min
  virus liter left VSV: ≦−0.5 Lg TCID50
VSV; illumination path 3.0 m, illumination time 39.0 sec, 50 ml/min
  virus liter left VSV: ≦−0.5 Lg TCID50
VSV; illumination path 3.5 m, illumination time 45.5 sec, 50 ml/min
  virus liter left VSV: ≦−0.5 Lg TCID50
VSV; illumination path 4.0 m, illumination time 52.0 sec, 50 ml/min
  virus liter left VSV: ≦−0.5 Lg TCID50
VSV; standard 15 cm bag with five pressed folded lines, plasma flowing speed 50
  virus titer left (VSV): ≦−0.50 Lg TCID50
VSV; standard 15 cm bag with five pressed folded lines, plasma flowing speed 80
  virus titer left (VSV): 0.13 Lg TCID50
VSV; standard 15 cm bag with three pressed folded lines, plasma flowing speed 50
  virus titer left (VSV): −0.25 Lg TCID50
VSV; standard 15 cm bag with three pressed folded lines, plasma flowing speed 80
  virus titer left (VSV): 1.50 Lg TCID50
VSV; standard 15 cm cut-through plasma bag, plasma flowing speed 50
  virus titer left (VSV): 4.25 Lg TCID50
VSV; standard 15 cm cut-through plasma bag, plasma flowing speed 80
  virus titer left (VSV): 5.13 Lg TCID50
Sindbis
  Sindbis virus illuminated (titer reduction): more than 5 LgTCID50
  reduction of virus titer Sindbis: over 5.0 Lg TCID50
  virus liter left Sindbis: ≦−0.5 Lg TCID50
Clotting factor VIII
  range of decrease of the activity of clotting factor VIII: less than 20%
